Tests used:
[1] = test system: adult R. sanguineus ticks; experiment: Contact activity against adult Rhipicephalus sanguineus (Example 5); details: coated vials, 48 hours post-treatment, read-out: EC50 (contact activity, percentage mortality)
Protocol: Compounds of formulae (I), (Ia) and/or (Ib) formulated in 100% DMSO are diluted in a solution containing acetone and Triton X-100 (0.02%). The resulting formulation is used to coat the inner walls of glass scintillation vials and the filter paper covering the cap of the vial. Once dried, ten adult R. sanguineus ticks are added to the vials. The vials are incubated at 24° C., 95% relative humidity, and 12 hours of light/12 hours of dark until evaluation. Ticks are visually evaluated for mortality at 48 hours post-treatment. Compound efficacy at a given dose is expressed as percentage mortality. A dose response series is implemented to determine EC50 values.

[2] = test system: adult Ctenocephalides felis fleas; experiment: Contact activity against adult Ctenocephalides felis (Example 4); details: adult C. felis, coated pipe cleaner in vial, 72 hours post-treatment, read-out: EC50 (contact activity, percentage mortality)
Protocol: Compounds of formulae (I), (Ia) and/or (Ib) dissolved in 100% DMSO are diluted in acetone to a desired concentration. The resulting formulation is used to coat the fibers of a 0.5-inch-long piece of pipe cleaner placed in a glass scintillation vial. The vial is capped with a rubber gasket and filter paper insert. After the acetone has evaporated, ten adult Ctenocephalides felis fleas are added to each vial. The vials are then incubated at 22° C., 80% relative humidity, and 12 hours of light/12 hours of dark until a visual evaluation for mortality is performed at 72 hours post-treatment. Compound efficacy at a given dose is expressed as percentage mortality and adjusted to remove background mortality observed in control vials containing DMSO only. A dose response series of treated vials is implemented to determine EC50 values.

adult C. felis fleas [3] = experiment: Ingestion activity against adult Ctenocephalides felis, membrane feeding, motility (Example 6); details: 48 h, bovine blood via artificial membrane, 48h post treatment, read-out: EC50 (ingestion activity, % motility reduction)
Protocol: Compounds of formulae (I), (Ia) and/or (Ib) dissolved in 100% DMSO are added to bovine blood and offered via an artificial membrane feeding system to adult C. felis fleas. The motility of fleas is then visually inspected 48h post treatment. Efficacy is expressed in % motility reduction compared to controls containing blood treated with DMSO only. A dose response series is implemented to determine EC50 values.

adult C. felis fleas [4] = experiment: Ingestion activity against adult Ctenocephalides felis, membrane feeding, alternative method (Examples 7 and 13); details: Ctenocephalides felis
Protocol: Selected compounds of formula (I), (Ia) and (Ib) and compound “125” of WO 2021/033141 dissolved in 100% DMSO are diluted in bovine blood with sodium heparin anti-coagulant. The resulting formulation is offered via an artificial membrane feeding system to approximately 15 adult C. felis fleas previously dispensed into 24-well plates. The plates are then incubated in a double-chambered device. Visual evaluation for mortality is performed at 48 hours post-treatment. Compound efficacy at a given dose is expressed as percentage mortality and determined by normalization to positive and negative controls. A dose response series is implemented to determine EC50 values.
Compounds of formulae (I), (Ia) and/or (Ib) dissolved in 100% DMSO are diluted in bovine blood with sodium heparin anti-coagulant. The resulting formulation is offered via an artificial membrane feeding system to approximately 15 adult C. felis fleas previously dispensed into 24-well plates. The plates are then incubated in a double-chambered device. Visual evaluation for mortality is performed at 48 hours post-treatment. Compound efficacy at a given dose is expressed as percentage mortality and determined by normalization to positive and negative controls. A dose response series is implemented to determine EC50 values.

Spodoptera litura = experiment: Insecticidal test on Spodoptera litura (Example 14); format: in vivo; details: foliar, 192 h, cabbage leaf dip, 2nd-instar larvae, 8 days after inoculation, read-out: activity level (corrected mortality rate)
Protocol: The compounds of formula (I), (Ia) and/or (Ib) of the present invention or salts thereof are separately dispersed in water and diluted to 500 ppm and 50 ppm. Cabbage leaves are dipped in the dispersion for about 30 seconds. After air dried, the leaves are placed in a plastic Petri dish with a diameter of 9 cm and inoculated with ten 2nd-instar larvae of Spodoptera litura, after which the dish is closed and then allowed to stand in a room at 25° C. 8 days after the inoculation, the numbers of the dead and alive insects are counted. The corrected mortality rate is calculated according to the following formula and the insecticidal activity is evaluated according to the following criteria.
[formula] [formula] • A: the corrected mortality rate is 100% • B: the corrected mortality rate is 90 to 99% • C: the corrected mortality rate is 80 to 89% • D: the corrected mortality rate is 50 to 79%

Laodelphax striatellus = experiment: Insecticidal test on Laodelphax striatellus (Example 16); format: in vivo; details: 192 h, rice seedling dip, 3rd-instar nymphs, 8 days after inoculation, read-out: activity level (corrected mortality rate)
Protocol: The compounds of formula (I), (Ia) and/or (Ib) of the present invention or salts thereof are separately dispersed in water and diluted to 500 ppm and 50 ppm. Rice plant seedlings are dipped in the dispersion for about 30 seconds. After air dried, the seedlings are put into a separate glass test tube and inoculated with ten 3rd-instar nymphs of Laodelphax striatellus and then the glass test tube is kept in a room at 25° C. 8 days after the inoculation, the numbers of the dead and alive insects are counted. The corrected mortality rate is calculated according to the following formula and the insecticidal activity is evaluated according to the following criteria.

Plutella xylostella = experiment: Insecticidal test on Plutella xylostella (Example 15); format: in vivo; details: 144 h, Chinese cabbage seedling dip, 6 days after dip treatment, read-out: activity level (corrected mortality rate)
Protocol: The compounds of formula (I), (Ia) and/or (Ib) of the present invention or salts thereof are separately dispersed in water and diluted to 500 ppm and 50 ppm. Ten adults of Plutella xylostella are released onto Chinese cabbage seedlings and allowed to lay eggs thereon. 2 days after the release of the adults, the seedling is dipped in the dispersion for about 30 seconds. After air dried, the seedling is kept in a room at 25° C. 6 days after the dip treatment, the numbers of the dead and alive insects are counted. The corrected mortality rate is calculated according to the following formula and the insecticidal activity is evaluated according to the following criteria.

Myzus persicae = experiment: Insecticidal test on Myzus persicae (Example 17); format: in vivo; details: 144 h, foliar application on Chinese cabbage, 6 days after application, read-out: control efficacy level (control rate)
Excerpt: The compounds of formula (I), (Ia) and/or (Ib) of the present invention or salts thereof are separately dispersed in water and diluted to 500 ppm and 50 ppm. Chinese cabbage plants are planted in plastic pots (diameter: 8 cm, height: 8 cm). Aphids (Myzus persicae) are propagated on the plants and then the number of surviving aphids is counted. The dispersion is applied to the foliage of the potted plants. After the plants are air dried, these are kept in a greenhouse. 6 days after the application, the number of the alive insects is counted on the plants. The control rate is calculated according to the following formula and the control efficacy is evaluated according to the following criteria. [formula] • Ta: the number of alive insects before the foliar application in a treated plot • T: the number of alive insects after the foliar application in a treated plot • Ca: the number of alive insects before the foliar application in an untreated plot • C: the number of alive insects after the foliar application in an untreated plot • A: the control rate is 100% • B: the control rate is 90 to 99% • C: the control rate is 80 to 89% • D: the control rate is 50 to 79%

A. aegypti L1 larvae = experiment: Activity against larvae of Aedes aegypti (Example 3); details: 48 h at 27° C., read-out: EC50 (percentage of mortality, larvae)
Protocol: Eight A. aegypti L1 larvae in a total volume of 64 μL water are added to 384-well microplates containing compounds of formulae (I), (Ia) and/or (Ib) formulated in 100% DMSO. The plates are incubated for 48 h at 27° C. Individual well images are acquired and analyzed using a pipeline to quantitatively assess the amount of larvae biomass accumulating at the bottom of the well. The efficacy of a compound at a given dose is expressed as “percentage of mortality” and determined by comparison to average biomass descriptors of positive and negative control wells containing 1.0 μM Fipronil or DMSO only, respectively. Dose response assay are conducted to determine an EC50 value.

[5] = adult C. felis, bovine blood with sodium heparin, membrane feeding, 48 hours post-treatment, read-out: EC50 (ingestion activity, percentage mortality, alternative method)
[6] = alternative method according to Example 7, mortality at 48 hours post-treatment, read-out: C. felis membrane feeding (ingestion/blood feeding) activity EC50

SMILES | EC50 [1] | EC50 [2] | EC50 (adult C. felis fleas [3]) | EC50 (adult C. felis fleas [4]; [5]) | EC50 (adult C. felis fleas [4]; [6]) | mortality at 50 ppm (Spodoptera litura) | mortality at 50 ppm (Laodelphax striatellus) | mortality at 50 ppm (Plutella xylostella) | pest or weed control at 50 ppm (Myzus persicae) | mortality at 500 ppm (Spodoptera litura) | mortality at 500 ppm (Laodelphax striatellus) | mortality at 500 ppm (Plutella xylostella) | pest or weed control at 500 ppm (Myzus persicae) | EC50 (A. aegypti L1 larvae)
CCS(=N)(=O)c1cc(-c2noc(C3(C(F)(F)F)CC3)n2)cnc1-c1nc2cc(C(F)(F)C(F)(F)F)cnc2n1C (stereo not shown) [Compound 3] | 10000 to 100000 nM | < 10000 nM | < 1000 nM | < 1000 nM | 448 nM | 100% | 100% | 100% | 100% |  |  |  |  | 
CCS(=N)(=O)c1cc(-c2noc(C3(F)CC3)n2)cnc1-c1nc2cc(C(F)(F)C(F)(F)F)cnc2n1C (stereo not shown) [Compound 5] | 10000 to 100000 nM | < 10000 nM | 1000 to 10000 nM | 1000 to 10000 nM | 1080 nM |  |  |  |  | 100% | 100% | 100% | 100% | 
CCS(=N)(=O)c1cc(-c2noc(C3CC3)n2)cnc1-c1nc2cc(C(F)(F)C(F)(F)F)nnc2n1C (stereo not shown) [Compound 8] | 10000 to 100000 nM | < 10000 nM | 1000 to 10000 nM | < 1000 nM | 643 nM |  |  |  |  |  | 100% | 100% | 100% | 
CCS(=N)(=O)c1cc(-c2cc(C3CC3)no2)cnc1-c1nc2cc(C(F)(F)C(F)(F)F)cnc2n1C (stereo not shown) [Compound 19] | 10000 to 100000 nM | < 10000 nM | < 1000 nM | 1000 to 10000 nM |  |  |  |  |  | 100% | 100% | 100% | 100% | 
CCS(=N)(=O)c1cc(-c2cc(C3CC3)ns2)cnc1-c1nc2cc(C(F)(F)C(F)(F)F)cnc2n1C (stereo not shown) [Compound 20] | 10000 to 100000 nM | < 10000 nM | < 1000 nM | 1000 to 10000 nM |  | 100% | 100% | 100% |  |  |  |  |  | 
CCS(=N)(=O)c1cc(-c2cnn(C3CC3)c2)cnc1-c1nc2cc(C(F)(F)C(F)(F)F)cnc2n1C (stereo not shown) [Compound 22] |  | 10000 to 100000 nM | < 1000 nM | < 1000 nM | 981 nM |  | 100% | 100% | 100% | 100% |  |  |  | 
CCS(=N)(=O)c1cc(-c2cc(C3CC3)on2)cnc1-c1nc2cc(C(F)(F)C(F)(F)F)cnc2n1C (stereo not shown) [Compound 24] | 10000 to 100000 nM | < 10000 nM | < 1000 nM | < 1000 nM | 839 nM | 100% |  | 100% | 100% |  | 100% | 100% | 100% | 
CCS(=N)(=O)c1cc(-c2cc(C3CC3)sn2)cnc1-c1nc2cc(C(F)(F)C(F)(F)F)cnc2n1C (stereo not shown) [Compound 25] |  | 10000 to 100000 nM | < 1000 nM | 1000 to 10000 nM |  | 100% |  | 100% | 100% |  | 100% |  |  | 
CCS(=N)(=O)c1cc(-n2cc(C3CC3)cn2)cnc1-c1nc2cc(C(F)(F)C(F)(F)F)cnc2n1C (stereo not shown) [Compound 27] | < 10000 nM | < 10000 nM | < 1000 nM | < 1000 nM | 177 nM |  |  |  |  | 100% | 100% | 100% | 100% | 
CCS(=N)(=O)c1cc(-c2cnn(C3CC3)c2)cnc1-c1nc2cc(C(F)(F)C(F)(F)F)nnc2n1C (stereo not shown) [Compound 30] | 10000 to 100000 nM | < 10000 nM | < 1000 nM | < 1000 nM | 519 nM |  |  |  |  | 100% | 100% | 100% | 100% | 
CCS(=N)(=O)c1cc(-c2noc(C3(C(F)(F)F)CC3)n2)cnc1-c1nc2cc(C(F)(F)C(F)(F)F)nnc2n1C (stereo not shown) [Compound 31] | 10000 to 100000 nM | < 10000 nM | < 1000 nM | < 1000 nM | 78 nM |  | 100% | 100% | 100% |  |  |  |  | < 40 nM

Reference: patent US20240336615A1, “CYCLOPROPYL-(HETERO)ARYL-SUBSTITUTED ETHYL-SULFOXIME-PYRIDINE DERIVATIVES” (Boehringer Ingelheim Vetmedica GmbH, priority 2023, published 2024)
